Data as given in US11179412B2, “Methods of treating conditions involving elevated inflammatory response” (University of Pittsburgh—Of the Commonwealth System of …, priority 2017, dated 2021).
Where a name gives a salt, the structure may show the parent alone. Read-outs that look alike come from different tables or passages of the source.

System: STING activation (IFNβ release) in iBMDMs
Assay: IFNβ release ELISA after STING ligand (or LPS) stimulation, iBMDMs
Type: cell-based, mouse
In short: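 IFNβ released into the medium was quantified by ELISA (mouse or human kit) after iBMDM stimulation with the canonical STING agonist 3′3′-cGAMP or with LPS.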

[1] = iBMDMs, 3′3′-cGAMP 10 μg/ml, 16 hours, compound 10 μM

Structure (SMILES) | fold increase in IFN-β release [1] [fold] | other results
O=C(NC(Cc1cc(=O)[nH]c2ccccc12)C(=O)O)c1ccc(Cl)cc1 (stereo not drawn) [Rebamipide] | 2.54 | –
COc1cc(F)c(F)c(Nc2ccc(I)cc2F)c1NS(=O)(=O)C1(C[C@H](O)CO)CC1 [Refametinib (RDEA119, Bay 86-9766), Refametinib] | 0.64 | –
Cc1cccc(-c2[nH]ncc2-c2ccc3ncccc3n2)n1 [RepSox] | – | fold increase in IFN-β release: 0.99 fold
CO[C@H]1C[C@@H]2CC[C@@H](C)[C@@](O)(O2)C(=O)C(=O)N2CCCC[C@H]2C(=O)O[C@H]([C@H](C)C[C@@H]2CC[C@@H](OP(C)(C)=O)[C@H](OC)C2)CC(=O)[C@H](C)/C=C(\C)[C@@H](O)[C@@H](OC)C(=O)[C@H](C)C[C@H](C)/C=C/C=C/C=C/1C [Ridaforolimus (Deforolimus, MK-8669), Ridaforolimus] | 0.58 | –
COc1cc(OC)c(/C=C/S(=O)(=O)Cc2ccc(OC)c(NCC(=O)O)c2)c(OC)c1 [Rigosertib (ON-01910), Rigosertib] | 0.96 | –
Cc1c(C(=O)NN2CCCCC2)nn(-c2ccc(Cl)cc2Cl)c1-c1ccc(Cl)cc1 [Rimonabant] | 0.81 | –
O=C(NC[C@H]1CN(c2ccc(N3CCOCC3=O)cc2)C(=O)O1)c1ccc(Cl)s1 [Rivaroxaban] | 0.54 | –
CN(C)CCc1c[nH]c2ccc(Cn3cncn3)cc12 [Rizatriptan Benzoate] | 2.85 | –
COc1cc(C(=O)NC2CCN(C)CC2)ccc1Nc1ncc2c(n1)N(C1CCCC1)CC(F)(F)C(=O)N2C [Ro3280] | 2.16 | –
COc1ccc(C2CNC(=O)C2)cc1OC1CCCC1 (stereo not drawn) [Rolipram] | 1.85 | –
COc1cc2c(cc1OC)[C@@H]1Cc3ccc(OC)c(OC)c3CN1CC2 [Rotundine] | 0.54 | –
CC(=O)OCC(=O)NCCCOc1cccc(CN2CCCCC2)c1 [Roxatidine Acetate HCl] | 3.16 | –
N#CC[C@H](C1CCCC1)n1cc(-c2ncnc3[nH]ccc23)cn1 [Ruxolitinib (INCB018424), Ruxolitinib] | 0.20 | –
Cc1nn(-c2ccccc2)c(C)c1/C=N/N1CCN(Cc2ccccc2)CC1 [SANT-1] | 1.49 | –
CCn1c(N)c(C(=O)NC)c(=O)c2ccc(C#C[C@@](C)(O)COC)nc21 [SAR131675] | 1.13 | –
C[S+]([O-])c1ccc(-c2nc(-c3ccc(F)cc3)c(-c3ccncc3)[nH]2)cc1 (stereo not drawn) [SB203580] | 0.35 | –
Cc1cc(NC(=O)Nc2ccc(N(C)C)cc2)c2cc(F)cc(F)c2n1 [SB408124] | 1.90 | –
O=C1NC(=O)C(c2ccccc2[N+](=O)[O-])=C1Nc1ccc(O)c(Cl)c1 [SB415286] | 1.15 | –
NC(=O)c1ccc(-c2nc(-c3ccccn3)c(-c3ccc4c(c3)OCO4)[nH]2)cc1 [SB431542] | 0.78 | –
O=C(Nc1ccccc1Br)N[C@@H]1CCN(c2ccc(C(F)(F)F)cn2)C1 [SB705498] | 0.32 | –
O=S(=O)(c1ccccc1)c1cnc2c(N3CCNCC3)cccc2c1 [SB742457] | 0.65 | –
Cc1ccc(C(=O)N(CCCN)[C@@H](c2oc3cc(Cl)ccc3c(=O)c2Cc2ccccc2)C(C)C)cc1 [SB743921] | 1.16 | –
O=S(=O)(CC1CS1)c1ccc(Oc2ccccc2)cc1 (stereo not drawn) [SB-3CT] | 0.49 | –
O=C(NNc1nc2cc(F)ccc2n2cccc12)c1cnccn1 [SC144] | 2.63 | –
CC(C)N(CCCNC(=O)Nc1ccc(C(C)(C)C)cc1)C[C@H]1O[C@@H](n2cc(Br)c3c(N)ncnc32)[C@H](O)[C@@H]1O [SGC 0946] | 1.90 | –

Structure (SMILES) | fold increase in IFN-β release [1] [fold] | other results
Cc1cc(Nc2ccc(NC(=O)c3ccc(Nc4ccnc5ccccc45)cc3)cc2)nc(N)n1 [SGI-1027] | 0.37 | –
CN1CCC(CNc2ccc3ncc(-c4cccc(OC(F)(F)F)c4)n3n2)CC1 [SGI-1776 free base] | 0.65 | –
Oc1ccc(Nc2nc(-c3ccc(Cl)cc3)cs2)cc1 [SKI II] | 0.49 | –
O=C1NC(=O)/C(=C/c2cccc(C(F)(F)F)c2)S1 [SMI-4a] | 0.84 | –
CC(C)(C)c1cnc(CSc2cnc(NC(=O)C3CCNCC3)s2)o1 [SNS-032 (BMS-387032)] | 1.01 | –
Oc1c2ccccc2c2c3c(cccc13)N=N2 [SP600125] | 3.35 | –
O=C(Nc1cc(C(F)(F)F)ccc1N1CCCCC1)c1ccncc1 [SRPIN340] | 2.38 | –
O=C(Nc1ccccc1-c1cn2c(CN3CCNCC3)csc2n1)c1cnc2ccccc2n1 [SRT1720] | 0.76 | –
COc1c(C)c(C(=O)c2ccc(N)c(C(=O)[O-])c2)n2ccccc12.[Na+] [SSR128129E] | 0.98 | –
Cc1ccc(S(=O)(=O)Cc2nc(-c3ccc(C(=O)NCc4cccnc4)cc3)oc2C)cc1 [STF-118804] | 1.41 | –
Cc1[nH]c(/C=C2\C(=O)Nc3ccc(S(=O)(=O)N(C)c4cccc(Cl)c4)cc32)c(C)c1C(=O)N1CCN(C)CC1 [SU11274] | 0.75 | –
C[C@H](NCc1ccc(OCc2cccc(F)c2)cc1)C(N)=O [Safinamide Mesylate] | 5.18 | –
O=C(/C=C/c1ccccc1)NC(NC(=S)Nc1ccc(Cl)cc1)C(Cl)(Cl)Cl (stereo not drawn) [Sal003] | 0.18 | –
CCOC(=O)NCCCC(=O)NCCc1ccccc1 [Santacruzamate A (CAY10683), Santacruzamate A] | 1.18 | –
Cn1cnc2c(F)c(Nc3ccc(Br)cc3Cl)c(C(=O)NOCCO)cc21 [Selumetinib (AZD6244), Selumetinib] | 0.50 | –
CC(C)[C@H](O)C(=O)N[C@@H](C)C(=O)N[C@@H]1C(=O)N(C)CCc2ccccc21 [Semagacestat (LY450139), Semagacestat] | 1.04 | –
CN[C@H]1CC[C@@H](c2ccc(Cl)c(Cl)c2)c2ccccc21 [Sertraline HCl] | 0.22 | –
CC(NC(=O)c1ccccc1/N=C/c1c(O)ccc2ccccc12)c1ccccc1 (stereo not drawn) [Sirtinol] | 0.26 | –
Cc1cc2c(cc1CC(=O)c1sccc1S(=O)(=O)Nc1onc(C)c1Cl)OCO2 [Sitaxentan sodium] | 1.16 | –
Nc1ccc(C(=O)[O-])c(O)c1.[Na+] [Sodium 4-Aminosalicylate] | 0.74 | –
CNC(=O)c1cc(Oc2ccc(NC(=O)Nc3ccc(Cl)c(C(F)(F)F)c3)cc2)ccn1 [Sorafenib] | 0.91 | –
CN1CCN(c2nc(C3=C(c4c[nH]c5ccccc45)C(=O)NC3=O)c3ccccc3n2)CC1 [Sotrastaurin] | 0.59 | –
O=[N+]([O-])c1ccc2c(c1)S(=O)(=O)C=C2 [Stattic] | 0.10 | –
Cc1cn([C@H]2C=C[C@@H](CO)O2)c(=O)[nH]c1=O [Stavudine (d4T), Stavudine] | 8.20 | 3′3′-cGAMP-induced IFNβ release [1]: promoted
Cc1ccc(-n2nccn2)c(C(=O)N2CCN(c3nc4cc(Cl)ccc4o3)CC[C@H]2C)c1 [Suvorexant (MK-4305), Suvorexant] | 1.54 | –
